In paper PMC6553640 (Science signaling, 2018):

Molecular target: T1, TRIB1 (Homo sapiens, UniProt Q96RU8)
T1 sequence (Q96RU8 84-372): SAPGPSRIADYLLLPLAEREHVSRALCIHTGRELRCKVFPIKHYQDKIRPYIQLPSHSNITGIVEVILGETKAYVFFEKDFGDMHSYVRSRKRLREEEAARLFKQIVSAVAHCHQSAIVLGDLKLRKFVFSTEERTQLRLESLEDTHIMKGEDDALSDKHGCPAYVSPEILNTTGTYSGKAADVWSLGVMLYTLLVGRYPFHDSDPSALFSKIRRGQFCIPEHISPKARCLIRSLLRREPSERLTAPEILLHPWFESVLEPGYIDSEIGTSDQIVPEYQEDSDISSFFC
Test: DSF destabilization
Type: binding

COc1cccc(COc2cc(-n3cnc4ccccc43)sc2C(N)=O)c1 [GW804482X] was tested, and the DSF destabilization was “although like TRIB2, destabilization was evident in the presence of GW804482X (fig. S3C)”.
